Measured values: publication PMC5444695, “CM363, a novel naphthoquinone derivative which acts as multikinase modulator and overcomes imatinib resistance in chronic myelogenous leukemia” (Oncotarget, 2016)
Structures can show the parent of a compound that is named as a salt.

Assays:
[1] = system: K562 cells; test: Live-cell imaging (IncuCyte HD) of proliferation and cytotoxicity, K562 cells; type: cell-based, human; settings: Homo sapiens, 96 h; IM sensitive K562, continuous exposure over 4-day period, area under curve; read-out: IC50AUC, cytostatic effect on cell growth
Protocol: Kinetic measurements of cell proliferation and cytotoxicity were carried out by using the IncuCyte^TM HD real time imaging system (Essen BioScience, Hertfordshire, United Kingdom). After seeding in a polylysine-coated 96 well-plates, K562 cells were treated with different concentrations of compound. This IncuCyte™ microscope permits the acquisition of automated phase contrast images. Individual images are processed by an imbedded contrast-based confluence algorithm, which compute monolayer confluence for each image and at each time point. Multiple images are collected per well and averaged to provide a representative statistical measure of confluence.

[2] = system: pTyr694-Stat5 (pYStat5); test: Immunoblotting of constitutive pYStat5 in K562 cells; type: cell-based; settings: Homo sapiens; K562, 0.05 μM IM, 3 h
Protocol: Then, cells were rinsed with cold PBS-vanadate (1 mM) followed by preparation of whole lysis extract with RIPA (Pierce, Illinois, USA). Equal amounts of each sample were separated by SDS-PAGE and transfered onto nitrocellulose membranes. After being blocked with 1% BSA-1% Blotto (anti-phospho-antibodies) (Santa Cruz Biotechnology, CA, USA) or 5% blotto (anti-total-antibodies) (Santa Cruz Biotechnology, CA, USA) (both diluted in Tris buffered saline with 0.05% Tween 20), membranes were immunoblotted overnight at 4°C with dilution (1:1000) in the same buffer of blocking of primary phosphoprotein or total protein antibodies. […] To control for differences in loading and transfer efficiency across membranes, membranes were incubated with a monoclonal mouse anti-beta actin antibody (Santa Cruz Biotechnology, CA, USA). The phosphoprotein array analysis of K562 cells was carried out by using the Profiler Human Phospho-Kinase Array Kit ARY003B (R&D Systems, Minneapolis, MN, USA) according to the manufacturer`s instructions.

## Cc1ccc(NC(=O)c2ccc(CN3CCN(C)CC3)cc2)cc1Nc1nccc(-c2cccnc2)n1 [IM, imatinib mesylate, reference compound]
[1]
  IC50: 200 ± 100 nM
[2]
  inhibition at 0.05 µM: 40%
